According to patent publication US8377884B2, “Variants of C-type natriuretic peptides” (Biomarin Pharmaceutical Inc., priority 2007, dated 2013):
Where two headings read alike, the source gives them in different places. One block for each compound: values may come before it. Numbered stars: 1 amine (or outer) side, 2 acyl side, 3 side chain; on linkers, the order of the positions; unused ones are H or OH. Bridge positions count the residues as written; N and C are the ends. Square brackets hold non-standard residues; d marks the D form. Ends that are not written are not given here. Peptide text beside a SMILES is read from it. PEG2K = polydispersed PEG of number-average molecular weight 2 kDa; X1 = O=C(C(CN[*:1])c1ccccc1)[*:2]

How the values were obtained:
Recombinant human NEP = Recombinant human NEP (Homo sapiens, UniProt P08473); experiment: In vitro neutral endopeptidase (NEP) cleavage assay
Recombinant human NEP, sequence (P08473 whole entry): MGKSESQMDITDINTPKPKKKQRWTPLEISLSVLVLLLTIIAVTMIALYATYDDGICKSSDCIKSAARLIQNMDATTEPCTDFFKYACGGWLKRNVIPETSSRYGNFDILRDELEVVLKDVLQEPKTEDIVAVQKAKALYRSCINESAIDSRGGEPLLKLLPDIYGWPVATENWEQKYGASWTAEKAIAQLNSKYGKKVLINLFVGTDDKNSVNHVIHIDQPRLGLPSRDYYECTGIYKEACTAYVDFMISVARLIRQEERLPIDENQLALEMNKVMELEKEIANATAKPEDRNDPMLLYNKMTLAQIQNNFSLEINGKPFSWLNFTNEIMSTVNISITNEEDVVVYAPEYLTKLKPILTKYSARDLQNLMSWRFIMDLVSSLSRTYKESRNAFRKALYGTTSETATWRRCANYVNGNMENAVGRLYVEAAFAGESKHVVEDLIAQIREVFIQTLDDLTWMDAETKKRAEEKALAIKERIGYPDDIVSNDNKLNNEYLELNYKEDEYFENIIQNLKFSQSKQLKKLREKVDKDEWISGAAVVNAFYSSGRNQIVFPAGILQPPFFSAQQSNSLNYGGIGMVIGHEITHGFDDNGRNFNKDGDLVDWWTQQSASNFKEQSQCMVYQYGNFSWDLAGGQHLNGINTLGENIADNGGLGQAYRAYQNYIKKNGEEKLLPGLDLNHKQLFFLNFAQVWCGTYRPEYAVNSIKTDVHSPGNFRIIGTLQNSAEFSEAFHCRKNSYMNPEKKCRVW
How it was run: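 Recombinant human NEP (1 ug/mL final) incubated with 100 uM CNP variant in 0.1 M Tris, pH 7, at 37° C for various times, then quenched with EDTA (10 mM final) and heat. Samples reduced and analysed by HPLC and mass spectrometry. Half-life derived from loss of intact variant over time.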

NPR-B = target: T1, NPR-B (Mus musculus, UniProt Q6VVW5); experiment: Stimulation of cGMP production in NIH3T3 cells; format: cell-based, Murine; conditions: for cGMP response relative to 1 uM CNP22 (%) at 0.01 µM: read-out: cGMP Response rel. to 1 uM CNP22, 10 nM; for cGMP response relative to 1 uM CNP22 (%) at 1 µM: read-out: cGMP Response rel. to 1 uM CNP22, 1 uM
T1 construct: Murine NIH3T3 cells express endogenously the CNP signaling receptor, NPR-B; endogenous in cells; host or cells: NIH3T3 (murine fibroblasts)
T1 sequence (Q6VVW5 17-1047): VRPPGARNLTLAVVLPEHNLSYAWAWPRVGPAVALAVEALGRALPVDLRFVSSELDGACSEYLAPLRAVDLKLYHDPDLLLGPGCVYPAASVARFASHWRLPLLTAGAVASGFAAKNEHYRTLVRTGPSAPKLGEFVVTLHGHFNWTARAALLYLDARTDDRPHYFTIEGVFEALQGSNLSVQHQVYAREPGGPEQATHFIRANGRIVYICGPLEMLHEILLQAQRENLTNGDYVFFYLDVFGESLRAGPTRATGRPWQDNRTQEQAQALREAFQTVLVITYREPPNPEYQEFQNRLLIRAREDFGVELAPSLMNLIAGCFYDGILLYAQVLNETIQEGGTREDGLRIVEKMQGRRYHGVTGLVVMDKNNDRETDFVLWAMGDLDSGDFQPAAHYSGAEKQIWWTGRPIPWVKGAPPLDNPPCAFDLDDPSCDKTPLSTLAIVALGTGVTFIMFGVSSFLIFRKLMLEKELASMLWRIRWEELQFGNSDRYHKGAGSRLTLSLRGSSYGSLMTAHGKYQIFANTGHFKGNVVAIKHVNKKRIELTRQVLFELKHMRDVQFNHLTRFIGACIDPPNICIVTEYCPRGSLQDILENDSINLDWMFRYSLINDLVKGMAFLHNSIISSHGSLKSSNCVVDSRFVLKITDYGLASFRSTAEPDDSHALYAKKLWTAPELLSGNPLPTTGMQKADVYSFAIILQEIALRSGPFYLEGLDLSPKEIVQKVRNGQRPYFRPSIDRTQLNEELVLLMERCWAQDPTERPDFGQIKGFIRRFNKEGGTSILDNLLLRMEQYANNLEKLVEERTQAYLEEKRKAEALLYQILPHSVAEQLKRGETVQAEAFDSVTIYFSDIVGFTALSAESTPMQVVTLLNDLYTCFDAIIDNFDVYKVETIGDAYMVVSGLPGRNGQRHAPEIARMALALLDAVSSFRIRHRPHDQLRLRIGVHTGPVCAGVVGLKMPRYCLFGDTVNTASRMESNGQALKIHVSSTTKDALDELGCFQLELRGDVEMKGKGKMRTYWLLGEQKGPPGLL

[1] = NIH3T3 cells, 10 nM natriuretic peptide, normalized to cell number and cGMP production with 1 uM wtCNP22
[2] = NIH3T3 cells, 1 uM natriuretic peptide, normalized to cell number and cGMP production with 1 uM wtCNP22

Compound: CC[C@H](C)[C@@H]1NC(=O)[C@H](CCCNC(=N)N)NC(=O)[C@H](CC(=O)O)NC(=O)[C@H](CC(C)C)NC(=O)[C@H](CCCCN)NC(=O)[C@H](CC(C)C)NC(=O)CNC(=O)[C@H](Cc2ccccc2)NC[C@@H](NC(=O)CNC(=O)[C@H](CCCCN)NC(=O)[C@H](CO)NC(=O)[C@H](CC(C)C)NC(=O)CN)CSSC[C@@H](C(=O)O)NC(=O)CNC(=O)[C@H](CC(C)C)NC(=O)CNC(=O)[C@H](CO)NC(=O)[C@H](CCSC)NC(=O)[C@H](CO)NC(=O)CNC1=O [A]
resistance to cleavage at the Cys6-Phe7 bond relative to wtCNP22 (Recombinant human NEP; data not shown): resistance or improved resistance

resistance to NEP cleavage/degradation (in words) (Recombinant human NEP): same lability to NEP hydrolysis as CNP22
Compound: CC[C@H](C)[C@@H]1NC(=O)[C@H](CCCNC(=N)N)NC(=O)[C@H](CC(=O)O)NC(=O)[C@H](CC(C)C)NC(=O)[C@H](CCCCN)NC(=O)[C@H](CC(C)C)NC(=O)CNC(=O)[C@H](Cc2ccccc2)NC(=O)[C@@H](NC(=O)CNC(=O)[C@H](CCCNC(=N)N)NC(=O)[C@H](CO)NC(=O)[C@H](CC(C)C)NC(=O)CNC(=O)[C@H](CCCNC(=N)N)NC(=O)[C@H](CCCNC(=N)N)NC(=O)[C@H](CC(N)=O)NC(=O)[C@H](C)NC(=O)CN)CSSC[C@@H](C(=O)O)NC(=O)CNC(=O)[C@H](CC(C)C)NC(=O)CNC(=O)[C@H](CO)NC(=O)[C@H](CCSC)NC(=O)[C@H](CO)NC(=O)CNC1=O [Analog AY] (H-GANRRGLSRGCFGLKLDRIGSMSGLGC-OH; disulfide 11-27 (inferred); N-terminus and C-terminus assumed)

resistance to NEP cleavage/degradation (in words) (Recombinant human NEP): resistant to NEP degradation
Compound: CC[C@H](C)[C@@H]1NC(=O)[C@H](CCCNC(=N)N)NC(=O)[C@H](CC(=O)O)NC(=O)[C@H](CC(C)C)NC(=O)[C@H](CCCCN)NC(=O)[C@H](CC(C)C)NC(=O)CNC(=O)[C@H](Cc2ccccc2)NC(=O)[C@@H](NC(=O)CNC(=O)[C@H](CCCCN)NC(=O)[C@H](CO)NC(=O)[C@H](CC(C)C)NC(=O)CNC(=O)[C@H](CCCCN)NC(=O)[C@H](CCCCN)NC(=O)[C@H](CC(N)=O)NC(=O)[C@H](C)NC(=O)CNC(=O)[C@H](CCCCN)NC(=O)[C@H](Cc2ccc(O)cc2)NC(=O)[C@H](CCCCN)NC(=O)[C@H](CCCNC(=N)N)NC(=O)[C@H](C)NC(=O)[C@H](CC(N)=O)NC(=O)[C@@H]2CCCN2C(=O)[C@H](Cc2c[nH]cn2)NC(=O)[C@H](CCC(=O)O)NC(=O)[C@@H](N)CCC(N)=O)CSSC[C@@H](C(=O)O)NC(=O)CNC(=O)[C@H](CC(C)C)NC(=O)CNC(=O)[C@H](CO)NC(=O)[C@H](CCSC)NC(=O)[C@H](CO)NC(=O)CNC1=O [Analog BL]

Compound: CC[C@H](C)[C@@H]1NC(=O)[C@H](CCCNC(=N)N)NC(=O)[C@H](CC(=O)O)NC(=O)[C@H](CC(C)C)NC(=O)[C@H](CCCCN)NC(=O)[C@H](CC(C)C)NC(=O)CNC(=O)[C@H](Cc2ccccc2)N(C)C(=O)[C@@H](NC(=O)CNC(=O)[C@H](CCCCN)NC(=O)[C@H](CO)NC(=O)[C@H](CC(C)C)NC(=O)CN)CSSC[C@@H](C(=O)O)NC(=O)CNC(=O)[C@H](CC(C)C)NC(=O)CNC(=O)[C@H](CO)NC(=O)[C@H](CCSC)NC(=O)[C@H](CO)NC(=O)CNC1=O [B]
cGMP response relative to 1 uM CNP22 (%) at 0.01 µM (NPR-B; NIH3T3, […]): 2%
cGMP response relative to 1 uM CNP22 (%) at 1 µM (NPR-B; NIH3T3, […]): 38%
resistance to cleavage at the Cys6-Phe7 bond relative to wtCNP22 (Recombinant human NEP; data not shown): resistance or improved resistance
resistance to cleavage of the Gly8-Leu9 bond (Recombinant human NEP; in the presence of 1 ug/mL NEP, data not shown): exhibited resistance

cGMP response relative to 1 uM CNP22 (%) at 0.01 µM (NPR-B; [1]): 24%
cGMP response relative to 1 uM CNP22 (%) at 1 µM (NPR-B; [2]): 76%
Compound: CC[C@H](C)[C@@H]1NC(=O)[C@H](CCCNC(=N)N)NC(=O)[C@H](CC(=O)O)NC(=O)[C@H](CC(C)C)NC(=O)[C@H](CCCCN)NC(=O)[C@H](CC(C)C)NC(=O)CNC(=O)[C@H](Cc2ccccc2)NC(=O)[C@@H](NC(=O)CNC(=O)[C@H](CCCCN)NC(=O)[C@H](CO)NC(=O)[C@H](CC(C)C)NC(=O)CNC(=O)[C@H](C)NC(=O)[C@H](CC(N)=O)NC(=O)[C@@H]2CCCN2C(=O)[C@H](Cc2c[nH]cn2)NC(=O)[C@H](CCC(=O)O)NC(=O)[C@H](CCC(N)=O)NC(=O)[C@H](CC(C)C)NC(=O)[C@H](CC(C)C)NC(=O)[C@H](CCCNC(=N)N)NC(=O)[C@H](C)NC(=O)[C@H](Cc2c[nH]c3ccccc23)NC(=O)[C@H](C)NC(=O)[C@H](C)N)CSSC[C@@H](C(=O)O)NC(=O)CNC(=O)[C@H](CC(C)C)NC(=O)CNC(=O)[C@H](CO)NC(=O)[C@H](CCSC)NC(=O)[C@H](CO)NC(=O)CNC1=O [CA] (H-AAWARLLQEHPNAGLSKGCFGLKLDRIGSMSGLGC-OH; disulfide 19-35 (inferred); N-terminus and C-terminus assumed)
resistance to NEP cleavage/degradation (in words) (Recombinant human NEP): much more resistant to NEP cleavage than CNP22

cGMP response relative to 1 uM CNP22 (%) at 0.01 µM (NPR-B; [1]): 36%
cGMP response relative to 1 uM CNP22 (%) at 1 µM (NPR-B; [2]): 84%
Compound: CC[C@H](C)[C@@H]1NC(=O)[C@H](CCCNC(=N)N)NC(=O)[C@H](CC(=O)O)NC(=O)[C@H](CC(C)C)NC(=O)[C@H](CCCCN)NC(=O)[C@H](CC(C)C)NC(=O)CNC(=O)[C@H](Cc2ccccc2)NC(=O)[C@@H](NC(=O)CNC(=O)[C@H](CCCCN)NC(=O)[C@H](CO)NC(=O)[C@H](CC(C)C)NC(=O)CNC(=O)[C@H](CCCNC(=N)N)NC(=O)[C@H](C)NC(=O)[C@H](CC(N)=O)NC(=O)[C@@H]2CCCN2C(=O)[C@H](Cc2c[nH]cn2)NC(=O)[C@H](CCC(=O)O)NC(=O)[C@H](CCC(N)=O)NC(=O)[C@H](CC(C)C)NC(=O)[C@H](CC(C)C)NC(=O)[C@H](CCCNC(=N)N)NC(=O)[C@H](C)NC(=O)[C@H](Cc2c[nH]c3ccccc23)NC(=O)[C@H](C)NC(=O)[C@H](C)N)CSSC[C@@H](C(=O)O)NC(=O)CNC(=O)[C@H](CC(C)C)NC(=O)CNC(=O)[C@H](CO)NC(=O)[C@H](CCSC)NC(=O)[C@H](CO)NC(=O)CNC1=O [CB] (H-AAWARLLQEHPNARGLSKGCFGLKLDRIGSMSGLGC-OH; disulfide 20-36 (inferred); N-terminus and C-terminus assumed)
resistance to NEP cleavage/degradation (in words) (Recombinant human NEP): much more resistant to NEP cleavage than CNP22

resistance to cleavage at the Cys6-Phe7 bond relative to wtCNP22 (Recombinant human NEP): resistance or improved resistance
Compound: CC[C@H](C)[C@@H]1NC(=O)[C@H](CCCNC(=N)N)NC(=O)[C@H](CC(=O)O)NC(=O)[C@H](CC(C)C)NC(=O)[C@H](CCCCN)NC(=O)[C@H](CC(C)C)NC(=O)CNC(=O)C(c2ccccc2)CNC(=O)[C@@H](NC(=O)CNC(=O)[C@H](CCCCN)NC(=O)[C@H](CO)NC(=O)[C@H](CC(C)C)NC(=O)CN)CSSC[C@@H](C(=O)O)NC(=O)CNC(=O)[C@H](CC(C)C)NC(=O)CNC(=O)[C@H](CO)NC(=O)[C@H](CCSC)NC(=O)[C@H](CO)NC(=O)CNC1=O (stereo partly shown) [H] (H-GLSKGC[X1]GLKLDRIGSMSGLGC-OH; disulfide 6-22; N-terminus and C-terminus assumed)

resistance to NEP cleavage/degradation (in words) (Recombinant human NEP): resistant to NEP degradation
Compound: DLRVDTKSRAAWARLLQEHPNARKYKGANKKGLSKGCFGLKLDRIGSMSGLGC (disulfide 37-53 (inferred)) [Analog BM]

Compound: PEG2K-CNP22(K4G): CNP22 having a K4G substitution, N-terminal PEGylated with PEG2K (PEG2K-GLSGGCFGLKLDRIGSMSGLGC; disulfide 6-22 (inferred); UniProt P23582 105-126, looked up, variant K4G)
resistance to NEP cleavage/degradation (in words) (Recombinant human NEP): only slightly more resistant to NEP cleavage than CNP22
